Tested on: MV-4-11 cells
Assay: Gene expression microarray analysis (Affymetrix PrimeView) and GSEA
Type: cell-based, human
Set-up: RFU PODN (11730768_x_at) / Fold change /veh PODN (11730768_x_at) / RFU LINC00158 (11744669_a_at) / Fold change /veh LINC00158 (11744669_a_at) / RFU DUSP10 (11751237_a_at) / Fold change /veh DUSP10 (11751237_a_at) / RFU ID3 (11757404_x_at) / Fold change /veh ID3 (11757404_x_at) / RFU PLEKHG5 (11737974_s_at) / Fold change /veh PLEKHG5 (11737974_s_at) / RFU LRRC4B (11730491_at) / Fold change /veh LRRC4B (11730491_at) / RFU GIMAP4 (11747438_a_at) / Fold change /veh GIMAP4 (11747438_a_at) / RFU KRT8 (11758183_x_at) / Fold change /veh KRT8 (11758183_x_at) / RFU CNN1 (11734310_a_at) / Fold change /veh CNN1 (11734310_a_at) / RFU VPS37D (11726825_at) / Fold change /veh VPS37D (11726825_at) / RFU C10orf10 (11716522_x_at) / Fold change /veh C10orf10 (11716522_x_at) / RFU KIR2DL2 /// KIR2DL4 /// KIR2DL5A /// KIR2DL5B /// KIR2DS1 /// KIR2DS2 /// KIR2DS3 /// KIR2DS4 /// KIR3DL3 /// KIR3DL3 /// KIR3DS1 (11738374_at) / Fold change /veh KIR2DL2 /// KIR2DL4 /// KIR2DL5A /// KIR2DL5B /// KIR2DS1 /// KIR2DS2 /// KIR2DS3 /// KIR2DS4 /// KIR3DL3 /// KIR3DL3 /// KIR3DS1 (11738374_at) / RFU C1QL1 (11718748_at) / Fold change /veh C1QL1 (11718748_at) / RFU TMPRSS4 (11747572_a_at) / Fold change /veh TMPRSS4 (11747572_a_at) / RFU HAMP (11756126_x_at) / Fold change /veh HAMP (11756126_x_at) / RFU RNFT2 (11725882_a_at) / Fold change /veh RNFT2 (11725882_a_at) / RFU NR4A2 (11747474_a_at) / Fold change /veh NR4A2 (11747474_a_at) / RFU ABCC12 (11746883_a_at) / Fold change /veh ABCC12 (11746883_a_at) / RFU TMEM136 (11760407_x_at) / Fold change /veh TMEM136 (11760407_x_at) / RFU CLDN22 /// WWC2 (11732394_at) / Fold change /veh CLDN22 /// WWC2 (11732394_at) / RFU HLA-DPB1 (11760878_x_at) / Fold change /veh HLA-DPB1 (11760878_x_at) / RFU SPINT1 (11716480_a_at) / Fold change /veh SPINT1 (11716480_a_at) / RFU GAP43 (11754022_s_at) / Fold change /veh GAP43 (11754022_s_at) / RFU A4GNT (11735810_at) / Fold change /veh A4GNT (11735810_at) / RFU PRB3 (11715151_x_at) / Fold change /veh PRB3 (11715151_x_at) / RFU TUBB4B (11761932_at) / Fold change /veh TUBB4B (11761932_at) / RFU CAPN14 (11732068_a_at) / Fold change /veh CAPN14 (11732068_a_at) / RFU TMCC2 (11721928_a_at) / Fold change /veh TMCC2 (11721928_a_at) / RFU IRGQ (11745062_a_at) / Fold change /veh IRGQ (11745062_a_at) / RFU FAM174B (11720279_a_at) / Fold change /veh FAM174B (11720279_a_at) / RFU TMPRSS4 (11748680_a_at) / Fold change /veh TMPRSS4 (11748680_a_at) / RFU FAM212B (11763350_a_at) / Fold change /veh FAM212B (11763350_a_at) / RFU PLEKHG5 (11743358_a_at) / Fold change /veh PLEKHG5 (11743358_a_at) / RFU ZSCAN30 (11745921_a_at) / Fold change /veh ZSCAN30 (11745921_a_at) / RFU CMKLR1 (11741424_a_at) / Fold change /veh CMKLR1 (11741424_a_at) / RFU LOC101060620 /// MAPK8IP1 (11723275_at) / Fold change /veh LOC101060620 /// MAPK8IP1 (11723275_at) / RFU SPTSSB (11747773_x_at) / Fold change /veh SPTSSB (11747773_x_at) / RFU PRSS12 (11739890_at) / Fold change /veh PRSS12 (11739890_at) / RFU BIN1 (11741810_x_at) / Fold change /veh BIN1 (11741810_x_at) / RFU WNT11 (11732464_a_at) / Fold change /veh WNT11 (11732464_a_at) / RFU C10orf10 (11716521_a_at) / Fold change /veh C10orf10 (11716521_a_at) / RFU C5orf56 (11738089_at) / Fold change /veh C5orf56 (11738089_at) / RFU CYB561 (11721691_x_at) / Fold change /veh CYB561 (11721691_x_at) / RFU ANKRD19P (11752326_a_at) / Fold change /veh ANKRD19P (11752326_a_at) / RFU OR2T12 /// OR2T33 /// OR2T8 (11738714_s_at) / Fold change /veh OR2T12 /// OR2T33 /// OR2T8 (11738714_s_at) / RFU VCAN (11748164_a_at) / Fold change /veh VCAN (11748164_a_at) / RFU JSRP1 (11732532_at) / Fold change /veh JSRP1 (11732532_at) / RFU KRTAP10-11 (11738290_x_at) / Fold change /veh KRTAP10-11 (11738290_x_at) / RFU MYO3A (11730013_a_at) / Fold change /veh MYO3A (11730013_a_at) / RFU EBF3 (11725865_a_at) / Fold change /veh EBF3 (11725865_a_at) / RFU CAMK2N1 (11719241_x_at) / Fold change /veh CAMK2N1 (11719241_x_at) / RFU C5orf56 (11738088_a_at) / Fold change /veh C5orf56 (11738088_a_at) / RFU OLFML3 (11715873_a_at) / Fold change /veh OLFML3 (11715873_a_at) / RFU LOC100653217 /// NTM (11731650_a_at) / Fold change /veh LOC100653217 /// NTM (11731650_a_at) / RFU MAPK11 (11762145_a_at) / Fold change /veh MAPK11 (11762145_a_at) / RFU FIZ1 (11724087_x_at) / Fold change /veh FIZ1 (11724087_x_at) / RFU OASL (11726364_x_at) / Fold change /veh OASL (11726364_x_at) / RFU SOX15 (11748057_x_at) / Fold change /veh SOX15 (11748057_x_at) / RFU CD79A (11719716_a_at) / Fold change /veh CD79A (11719716_a_at) / RFU HIST1H1D (11736915_at) / Fold change /veh HIST1H1D (11736915_at) / RFU CASKIN2 (11723855_a_at) / Fold change /veh CASKIN2 (11723855_a_at) / RFU LOC730098 (11760151_x_at) / Fold change /veh LOC730098 (11760151_x_at) / RFU OR4N2 (11742367_at) / Fold change /veh OR4N2 (11742367_at) / RFU PRRT2 (11749266_a_at) / Fold change /veh PRRT2 (11749266_a_at) / RFU SNX32 (11753110_a_at) / Fold change /veh SNX32 (11753110_a_at) / RFU CDHR5 (11726645_a_at) / Fold change /veh CDHR5 (11726645_a_at) / RFU RCAN1 (11760418_a_at) / Fold change /veh RCAN1 (11760418_a_at) / RFU FAM167A (11723789_a_at) / Fold change /veh FAM167A (11723789_a_at) / RFU FAM26E (11764081_at) / Fold change /veh FAM26E (11764081_at) / RFU ISYNA1 (11749810_s_at) / Fold change /veh ISYNA1 (11749810_s_at) / RFU ACY1 (11761880_at) / Fold change /veh ACY1 (11761880_at) / RFU 11764098_at / Fold change /veh 11764098_at / RFU SAMD14 (11745864_x_at) / Fold change /veh SAMD14 (11745864_x_at) / RFU NPB (11741838_a_at) / Fold change /veh NPB (11741838_a_at) / RFU TMPRSS6 (11731388_a_at) / Fold change /veh TMPRSS6 (11731388_a_at) / RFU KRTAP10-2 (11738614_at) / Fold change /veh KRTAP10-2 (11738614_at) / RFU ARHGAP8 /// PRR5-ARHGAP8 (11727945_x_at) / Fold change /veh ARHGAP8 /// PRR5-ARHGAP8 (11727945_x_at) / RFU KRTAP5-7 /// NADSYN1 (11734609_at) / Fold change /veh KRTAP5-7 /// NADSYN1 (11734609_at) / RFU RASL12 (11751679_a_at) / Fold change /veh RASL12 (11751679_a_at) / RFU CDKN2B (11736163_a_at) / Fold change /veh CDKN2B (11736163_a_at) / RFU PRF1 (11729649_at) / Fold change /veh PRF1 (11729649_at) / RFU, ZNF638 /// ZNF638-IT1 / Fold change vs veh, ZNF638 /// ZNF638-IT1 / RFU, PANK3 / Fold change vs veh, PANK3 / RFU, SH3YL1 / Fold change vs veh, SH3YL1 / RFU, ZEB2 / Fold change vs veh, ZEB2 / RFU, NRIP1 / Fold change vs veh, NRIP1 / RFU, PTTG1IP / Fold change vs veh, PTTG1IP / RFU, CAPN2 / Fold change vs veh, CAPN2 / RFU, MED14 / Fold change vs veh, MED14 / RFU, SNORA58 / Fold change vs veh, SNORA58 / RFU, C1orf63 / Fold change vs veh, C1orf63 / RFU, LRRFIP1 / Fold change vs veh, LRRFIP1 / RFU, NDUFAF7 / Fold change vs veh, NDUFAF7 / RFU, SLC12A2 / Fold change vs veh, SLC12A2 / RFU, IBTK / Fold change vs veh, IBTK / RFU, ESF1 / Fold change vs veh, ESF1 / Fold change vs veh, TMEM50B / RFU, TAOK1 / Fold change vs veh, TAOK1 / RFU, ACBD3 / Fold change vs veh, ACBD3 / RFU, TMA16 / Fold change vs veh, TMA16 / RFU, RWDD3 / Fold change vs veh, RWDD3 / RFU, BCAT1 / Fold change vs veh, BCAT1 / RFU, EDEM3 / Fold change vs veh, EDEM3 / RFU, TMEM33 / Fold change vs veh, TMEM33 / RFU, WDR75 / Fold change vs veh, WDR75 / RFU, AHCTF1 / Fold change vs veh, AHCTF1 / RFU, TFRC / Fold change vs veh, TFRC / RFU, ZDHHC17 / Fold change vs veh, ZDHHC17 / RFU, NOM1 / Fold change vs veh, NOM1 / RFU, ARL8B / Fold change vs veh, ARL8B / RFU, ZBTB11 / Fold change vs veh, ZBTB11 / RFU, TAMM41 / Fold change vs veh, TAMM41 / RFU, KIAA1704 /// LOC100996395 / Fold change vs veh, KIAA1704 /// LOC100996395 / RFU, ING1 / Fold change vs veh, ING1 / RFU, TRMT61B / Fold change vs veh, TRMT61B / RFU, FUBP3 / Fold change vs veh, FUBP3 / RFU, TP53 / Fold change vs veh, TP53 / RFU, TNKS2 / Fold change vs veh, TNKS2 / RFU, ZFP14 / Fold change vs veh, ZFP14 / RFU, ACTR2 / Fold change vs veh, ACTR2 / RFU, PPP3R1 / Fold change vs veh, PPP3R1 / RFU, PIK3R1 / Fold change vs veh, PIK3R1 / RFU, HNRNPA1 / Fold change vs veh, HNRNPA1 / RFU, RNF170 / Fold change vs veh, RNF170 / RFU, ZNF28 / Fold change vs veh, ZNF28 / RFU, RNGTT / Fold change vs veh, RNGTT / RFU, OGT / Fold change vs veh, OGT / RFU, BRD1 / Fold change vs veh, BRD1 / RFU, MARS / Fold change vs veh, MARS / RFU, ZNF655 / Fold change vs veh, ZNF655 / RFU, FAHD1 / Fold change vs veh, FAHD1 / RFU, BDP1 / Fold change vs veh, BDP1 / RFU, LRRCC1 / Fold change vs veh, LRRCC1 / RFU, ARID1A / Fold change vs veh, ARID1A / RFU, ZNF146 / Fold change vs veh, ZNF146 / RFU, ZNF330 / Fold change vs veh, ZNF330 / RFU, GPN3 / Fold change vs veh, GPN3 / RFU, C9orf123 / Fold change vs veh, C9orf123 / RFU, N4BP2L2 / Fold change vs veh, N4BP2L2 / RFU, ARFIP1 / Fold change vs veh, ARFIP1 / RFU, FAM179B / Fold change vs veh, FAM179B / RFU, BCL10 / Fold change vs veh, BCL10 / RFU, UHRF1BP1L / Fold change vs veh, UHRF1BP1L / RFU, BET1 / Fold change vs veh, BET1 / RFU, CNOT2 / Fold change vs veh, CNOT2 / RFU, ZNF268 / Fold change vs veh, ZNF268 / Fold change vs veh, ZNF507 / RFU, DGCR2 / Fold change vs veh, DGCR2 / RFU, WDSUB1 / Fold change vs veh, WDSUB1 / Fold change vs veh, HSP90B1 /// MIR3652 / RFU, ADSS / Fold change vs veh, ADSS / RFU, GK / Fold change vs veh, GK / RFU, ZNF148 / Fold change vs veh, ZNF148 / RFU, TAF9 / Fold change vs veh, TAF9 / RFU, SLC1A5 / Fold change vs veh, SLC1A5 / RFU, SLMO2 / Fold change vs veh, SLMO2 / RFU, ABCC4 / Fold change vs veh, ABCC4 / RFU, LOC101060439 /// RAP1B / Fold change vs veh, LOC101060439 /// RAP1B / RFU, RFX7 / Fold change vs veh, RFX7 / RFU, GTPBP10 / Fold change vs veh, GTPBP10 / RFU, CNEP1R1 / Fold change vs veh, CNEP1R1 / RFU, BIVM-ERCC5 /// ERCC5 / Fold change vs veh, BIVM-ERCC5 /// ERCC5 / RFU, ILF3 / Fold change vs veh, ILF3 / RFU 11762660_at / Fold change /veh 11762660_at / RFU VCAN (11757783_s_at) / Fold change /veh VCAN (11757783_s_at) / RFU DDX43 (11728927_at) / Fold change /veh DDX43 (11728927_at) / RFU KRT8 (11758188_x_at) / Fold change /veh KRT8 (11758188_x_at) / RFU NKD1 (11759106_at) / Fold change /veh NKD1 (11759106_at) / RFU SRD5A1 (11742802_a_at) / Fold change /veh SRD5A1 (11742802_a_at) / RFU TPSAB1 /// TPSB2 (11721975_s_at) / Fold change /veh TPSAB1 /// TPSB2 (11721975_s_at) / RFU GSTM3 (11746129_a_at) / Fold change /veh GSTM3 (11746129_a_at) / RFU IL23R (11737362_x_at) / Fold change /veh IL23R (11737362_x_at) / RFU TMEM51 (11727254_a_at) / Fold change /veh TMEM51 (11727254_a_at) / RFU PIWIL2 (11732686_x_at) / Fold change /veh PIWIL2 (11732686_x_at) / RFU ORM1 (11744905_x_at) / Fold change /veh ORM1 (11744905_x_at) / RFU CCDC152 (11743942_at) / Fold change /veh CCDC152 (11743942_at) / RFU ECM1 (11717891_a_at) / Fold change /veh ECM1 (11717891_a_at) / RFU IL23R (11748794_a_at) / Fold change /veh IL23R (11748794_a_at) / RFU TNFAIP8L3 (11732012_x_at) / Fold change /veh TNFAIP8L3 (11732012_x_at) / RFU MBOAT4 (11741988_at) / Fold change /veh MBOAT4 (11741988_at) / RFU 11764193_at / Fold change /veh 11764193_at / RFU TMEM53 (11763286_at) / Fold change /veh TMEM53 (11763286_at) / RFU MAGEB2 (11727129_at) / Fold change /veh MAGEB2 (11727129_at) / RFU TMEM200A (11744735_a_at) / Fold change /veh TMEM200A (11744735_a_at) / RFU CCDC152 (11751479_a_at) / Fold change /veh CCDC152 (11751479_a_at) / RFU FAM211A (11726209_a_at) / Fold change /veh FAM211A (11726209_a_at) / RFU RGS16 (11746705_a_at) / Fold change /veh RGS16 (11746705_a_at) / RFU VCAN (11755009_s_at) / Fold change /veh VCAN (11755009_s_at) / RFU RHOB (11743442_s_at) / Fold change /veh RHOB (11743442_s_at) / RFU RGS16 (11720943_a_at) / Fold change /veh RGS16 (11720943_a_at) / RFU RGS16 (11720944_at) / Fold change /veh RGS16 (11720944_at) / RFU, VPS4B / Fold change vs veh, VPS4B / RFU, CREB1 / Fold change vs veh, CREB1 / RFU, DNAJC13 / Fold change vs veh, DNAJC13 / RFU, GNAQ / Fold change vs veh, GNAQ / RFU, CDK5R1 / Fold change vs veh, CDK5R1 / RFU, ZRANB3 / Fold change vs veh, ZRANB3 / RFU, CUL4A / Fold change vs veh, CUL4A / RFU, CCNY / Fold change vs veh, CCNY / RFU, UFL1 / Fold change vs veh, UFL1 / RFU, COG3 / Fold change vs veh, COG3 / RFU, DIAPH2 / Fold change vs veh, DIAPH2 / RFU, SKA2 / Fold change vs veh, SKA2 / RFU, AFF3 / Fold change vs veh, AFF3 / RFU, LMF1 / Fold change vs veh, LMF1 / RFU, IPO11 / Fold change vs veh, IPO11 / RFU, DFFB / Fold change vs veh, DFFB / RFU, FOXP1 / Fold change vs veh, FOXP1 / RFU, CARD8 / Fold change vs veh, CARD8 / RFU, STRN3 / Fold change vs veh, STRN3 / RFU, ADK / Fold change vs veh, ADK / RFU, RASSF2 / Fold change vs veh, RASSF2 / RFU, WIPF1 / Fold change vs veh, WIPF1 / RFU, LARP1B / Fold change vs veh, LARP1B / RFU, RASA1 / Fold change vs veh, RASA1 / RFU, RB1 / Fold change vs veh, RB1 / RFU, PPFIA1 / Fold change vs veh, PPFIA1 / RFU, MAT2A / Fold change vs veh, MAT2A / RFU, CCT5 / Fold change vs veh, CCT5 / RFU, WDR92 / Fold change vs veh, WDR92 / RFU, CUX1 / Fold change vs veh, CUX1 / RFU, TTC7A / Fold change vs veh, TTC7A / RFU, TMEM135 / Fold change vs veh, TMEM135 / RFU, DEPTOR / Fold change vs veh, DEPTOR / RFU, CPM / Fold change vs veh, CPM / RFU, DNAJB6 / Fold change vs veh, DNAJB6 / RFU, CACNA2D3 / Fold change vs veh, CACNA2D3 / RFU, DTX4 / Fold change vs veh, DTX4 / RFU, TFCP2 / Fold change vs veh, TFCP2 / RFU, GMCL1 /// GMCL1P1 / Fold change vs veh, GMCL1 /// GMCL1P1 / RFU, AEBP2 / Fold change vs veh, AEBP2 / RFU, SNHG1 /// SNORD22 /// SNORD25 /// SNORD26 /// SNORD27 /// SNORD28 /// SNORD29 /// SNORD31 / Fold change vs veh, SNHG1 /// SNORD22 /// SNORD25 /// SNORD26 /// SNORD27 /// SNORD28 /// SNORD29 /// SNORD31 / Fold change (Aza/veh), C12orf56 (ProbeSet 11735607_a_at) / Fold change (ACY-1035/veh), C12orf56 (ProbeSet 11735607_a_at) / Fold change (Aza/veh), FGFR1OP (ProbeSet 11751329_s_at) / Fold change (ACY-1035/veh), FGFR1OP (ProbeSet 11751329_s_at) / Fold change (Aza/veh), VPS36 (ProbeSet 11739960_a_at) / Fold change (ACY-1035/veh), VPS36 (ProbeSet 11739960_a_at) / RFU SYPL1 (11715823_x_at) / Fold change /veh SYPL1 (11715823_x_at) / RFU IGFBP7 (11715501_s_at) / Fold change /veh IGFBP7 (11715501_s_at) / RFU REEP3 (11722064_at) / Fold change /veh REEP3 (11722064_at) / RFU IGLL1 (11728026_x_at) / Fold change /veh IGLL1 (11728026_x_at): dose or concentration left out as unconfirmed
Settings: MV-4-11 cells, 48 hours

Nc1ccc(-c2cccs2)cc1NC(=O)c1ccc2c(c1)cc(C1CC1)n2CCN1CCOCC1 [ACY-1035]
RFU CLDN22 /// WWC2 (11732394_at): 8.03 RFU
